Melting point data for 89 compounds are collected here from a melting point compilation (Tetko et al.; mined from patent text by program, amines drawn as free bases though some values may be those of a salt).

Where only a bound is given, the exact number is not on record here.

A word on the melting point: it is the temperature, or range, at which the solid turns liquid. For the compound `CCN(CC)C(=O)Cc1c(-c2ccc(Cl)cc2)nc2c(C)cc(C)nn12`, the melting point was in the range of 162 to 165 °C.

`Cc1cc(C(N)=S)c2c(c1C)C(=O)CC2`: the melting point fell in the range of 207 to 208 °C.

For the compound `Cn1nc(C(=O)NCC2(O)CN3CCC2CC3)c2ccccc21` (centres undefined), the melting point lay in the range of 147 to 149 °C.

The compound `O=C(O)Cn1c(-c2cccc(Cl)c2)nc2cccnc21` displayed a melting point of 214 to 216 °C.

Turning to `COc1cccc(-c2cccc3nc(Nc4cc(OC)c(OC)c(OC)c4)oc23)c1`, the melting point fell in the range of 167 to 170 °C.

`COc1cc(CN(O)C(N)=O)ccc1OCc1nc(-c2ccccc2)oc1C` gave a melting point of 138 to 139 °C.

The compound `Cn1ccnc1Sc1ccccc1[N+](=O)[O-]` displayed a melting point of 117 to 119 °C.

In turn, `C=C1/C(=C\C=C2/CCC[C@@]3(C)[C@H]2CC[C@@H]3[C@]2(C)C[C@H](CC(C)(C)O)CO2)C[C@@H](O)C[C@@H]1O` displayed a melting point of 128 °C.

The compound `CC(=O)NCc1ccc(CN2CCN(c3nc(Cl)cc(Cl)n3)CC2)cc1` yielded a melting point of 139 to 140 °C.

Consider `COc1ccc2nc(NC(=O)C(CC3CCCC3)c3ccc(S(=O)(=O)CC(C)=O)cc3)sc2n1` (centres undefined), for which the melting point was in the range of 67 to 71 °C.

With `O=C(O)CCC1(c2cccc(Cl)c2)NC(=O)NC1=O` (centres undefined), the melting point was 196 to 217 °C.

Take `COc1cc(C(=O)Cc2ccccc2C)cc([N+](=O)[O-])c1O`: the melting point fell in the range of 150 to 151 °C.

As for `CC(=O)CSc1nc2ccccc2[nH]1`, the melting point fell in the range of 112 to 113 °C.

The compound `CC1=C(c2ccccc2)C(=O)N(C(C)(C)c2cccc(Cl)c2)CC1` displayed a melting point of 117 to 118 °C.

`Clc1cccc(OCC(Cn2ccnc2)Sc2c(Cl)cccc2Cl)c1Cl` (centres undefined): the melting point is 135 to 136 °C.

`CCNc1ccc(F)cc1OCc1ccccc1` registered a melting point of 58 to 59 °C.

Regarding `O=C(NC(=O)N1CCC(Cc2ccccc2)CC1)c1ccc2[nH]c(=O)oc2c1`, the melting point stood at 174 °C.

`CCCCCCCCNC(=O)CCBr`: the melting point is 48 to 55 °C.

As to `CC(C)CCCC(C)Cc1nc2c3cc(Br)sc3c3sc(Br)cc3c2nc1CC(C)CCCC(C)C` (centres undefined), the melting point fell in the range of 106 to 108 °C.

`Cc1cc(C(=O)O)ncc1C(c1cc(F)ccc1F)S(=O)(=O)c1ccc(Cl)cc1` (centres undefined) had a melting point of 208 to 209 °C.

For the compound `N#Cc1ccc(N2CCN(Cc3cnc4c(c3)NC(=O)C3CCCCN43)CC2)cc1` (centres undefined), the melting point was 212 °C.

`Nc1ncnc2c1c(-c1ccc(Oc3ccccc3)cc1)cn2S(=O)(=O)C1CCCC1` gave a melting point of 188 °C.

`COc1cc2c(cc1Nc1ncc(Cl)c(Nc3ccccc3S(=O)(=O)N(C)C)n1)CCN(CCOC(=O)CN)CC2`: the melting point lay within 77 to 79 °C.

`C[C@H]1COc2c(N3CC(C)(N)C4(CC4)C3)c(F)cc3c(=O)c(C(=O)O)cn1c23` (some centres undefined) gave a melting point of 268 to 270 °C.

`COC(=O)c1oc2c(sc3ccccc32)c1OC`: the melting point fell in the range of 145 to 146 °C.

In the case of `Cc1cc(-c2ccccc2)n(-c2ccc(C(=O)O)cc2)n1`, the melting point lay in the range of 159 to 162 °C.

In turn, `CCOC(=O)c1c(CCN(CC)CC)nc2cc(OC)c(OC)cc2c1-c1ccc(OC)c(OC)c1` returned a melting point of 76 to 78 °C.

Consider `O=C(OCc1ccccc1C(=O)O)c1ccccc1`, for which the melting point lay in the range of 118 to 124 °C.

Regarding `O=C(O)c1cn(CCF)c2c(F)c(F)c(F)cc2c1=O`, the melting point was in the range of 208 to 210 °C.

`COC(=O)C1(n2c(=O)[nH]c3ccccc3c2=O)CCCCC1` came in with a melting point of 145 to 147 °C.

Take `CCN1C(=O)CCC(C)(C)c2ccc(Nc3ncc(Cl)c(Nc4c(F)cccc4OCC#N)n3)cc21`: the melting point lay in the range of 235 to 238 °C.

In turn, `CCCCn1sc2nccn2c1=O` displayed a melting point of 142 to 143 °C.

`C=CCN(C1CCN(C)CC1)S(=O)(=O)c1ccc(Nc2nccc(Nc3ccc(F)cc3)n2)cc1` yielded a melting point of 167 °C.

The compound `CN(C=C(C#N)C(=O)Nc1ccccc1Cl)Cc1ccccc1Cl` yielded a melting point of 138 to 139 °C.

As for `C=Cc1cnc2c(NC(=O)c3c(Cl)cccc3Cl)cccc2c1CO`, the melting point is 243 to 244 °C.

In the case of `O=C(O)c1cccc(Oc2cccc(-c3nn(Cc4ccc(C(F)(F)P(=O)(O)O)c(Br)c4)c(=Nc4ccc(Cl)c(Cl)c4)s3)c2)c1`, the melting point is 210 to 215 °C.

As to `Cc1sc2c(c1C)CNC(Cl)=N2`, the melting point fell in the range of 170 to 172 °C.

In turn, `COc1nc(NN)c(C(F)(F)F)cc1Cl` displayed a melting point of 140 to 142 °C.

`COCC(O)c1nc2cc(Cl)ccc2c(O)c1C(=O)Nc1nccs1` (centres undefined) displayed a melting point above 270 °C.

On to `CCCC(c1ccc(C(=O)c2ccccc2)cc1OCc1ccc(Br)cc1)n1ccnc1` (centres undefined), for which the melting point lay in the range of 70 to 72 °C.

`COC(=O)[C@H]1CN(CCO)CC[C@H]1NC(=O)OCc1ccccc1` returned a melting point of 73 °C.

For the compound `O=C(O)c1ccc(OCC2CN(c3ccccc3)C(=S)O2)cc1` (centres undefined), the melting point lay within 214 to 215 °C.

The compound `CCCc1nc2c(N)nc3cc(OCc4cccc(C)c4)ccc3c2n1CC(C)C` returned a melting point of 200 to 203 °C.

On to `COC(=O)OC1=C(c2cc(C)ccc2C)C(=O)NC12CCN(OC)CC2`, for which the melting point lay within 186 to 188 °C.

Turning to `COC(=O)CCCc1cc2cc(Cl)ccc2n1S(=O)(=O)c1cc(C)cc(C)c1`, the melting point lay in the range of 140 to 143 °C.

`CCCn1c(=O)c2[nH]c(-c3cc(C)n(CC(=O)Nc4ccccc4)n3)nc2n(CCC)c1=O` came in with a melting point of 255 to 257 °C.

`O=C(NC1CCSCC1)c1cnccc1C(F)(F)F`: the melting point was 161 to 163 °C.

Regarding `CCOc1nn(Cc2ccc(OC3CCN(c4ccccn4)CC3)cc2)cc1CCC(=O)O`, the melting point lay within 142 to 143 °C.

The compound `BrCc1ccc2c(c1)CCO2` registered a melting point of 57 to 60 °C.

The compound `CC#CCOc1ccc(OCC(=O)NO)cc1` showed a melting point of 100 to 105 °C.

`CC(=O)c1ccc(Nc2nc(N)c(C(=O)c3ccccc3[N+](=O)[O-])s2)cc1` showed a melting point of 264 to 265 °C.

Regarding `COC(=O)C1Oc2ccc(Cl)cc2C(C)(c2ccccc2)O1` (centres undefined), the melting point fell in the range of 114 to 115 °C.

`COC(=O)c1ccc2c(c1)C(=O)C(CC=O)C2` (racemic): the melting point amounted to 92 °C.

With `CCOC(=O)CCc1ccc(CCNS(=O)(=O)c2ccc(Cl)cc2)cc1`, the melting point is 61 to 62 °C.

The compound `CCCCCCCNC(=O)Nc1ccc(N2CCCCC2)cc1C(=O)NCC1CCN(C(c2ccccc2)c2ccccc2)CC1` showed a melting point of 166 to 168 °C.

Regarding `O=C(Oc1ccccc1)N1CCC2(CC1)SC(c1cccc(F)c1)c1ccccc12` (centres undefined), the melting point lay in the range of 134 to 142 °C.

With `NC(=S)c1ccc([N+](=O)[O-])cc1`, the melting point fell in the range of 165 to 167 °C.

`CC1=C(c2ccc(O)cc2)C(=O)c2cc(O)ccc21`: the melting point was 125 to 129 °C.

In turn, `O=C(C=Cc1ccc(O)c(OC(F)(F)F)c1)C(CCOCCO)C(=O)C=Cc1ccc(O)c(OC(F)(F)F)c1` (centres undefined) yielded a melting point of 112 to 114 °C.

`CC(=O)Nc1ccc(S(=O)(=O)N(CCCl)CCCl)cc1`: the melting point fell in the range of 113 to 114 °C.

`NC(=O)CCC(N)CO` (centres undefined) yielded a melting point of 92 to 95 °C.

Compound `O=[N+]([O-])c1cccc(O)c1CO` displayed a melting point of 97 to 99 °C.

In the case of `COC(=O)c1cccc2c(=O)c3c(I)cccc3[nH]c12`, the melting point is 239 to 241 °C.

In the case of `Cc1ccc(C2=NC(O)(C(F)(F)F)CN2c2ccc(S(C)(=O)=O)cc2)cc1Cl` (centres undefined), the melting point is 201 °C.

The compound `CCCCc1oc2ccccc2c1C(=O)NCc1ccc2c(-c3ccc(Cl)cc3)c(OCc3nnn[nH]3)ccc2c1` registered a melting point of 208 to 211 °C.

Take `O=C(NCc1ccc(Cl)cc1)c1noc2ccc(C#CCO)cc2c1=O`: the melting point was in the range of 117 to 120 °C.

The compound `NC(Cc1cc(Cl)c(Sc2ccc(O)c(Cc3ccc(=O)[nH]c3)c2)c(Cl)c1)C(=O)O` (centres undefined) gave a melting point of 261 to 264 °C.

Compound `Cn1nnc(-c2ccc(CNc3n[nH]c4ncnc(Nc5cccc(Cl)c5)c34)cc2)n1` came in with a melting point of 232 to 235 °C.

Compound `CN(C)N1C2=NCCN2C(=O)c2ccccc21` came in with a melting point of 197 to 198 °C.

On to `C#CCn1cncc1CO`, for which the melting point is 91 to 92.5 °C.

In turn, `COC(=O)CCc1cc2c(s1)NC(=O)C(C)N=C2c1ccccc1Cl` (centres undefined) returned a melting point of 196 to 197 °C.

Compound `COc1cc2c(cc1OC)CC(=O)N(CCCI)C=C2` returned a melting point of 132 to 134 °C.

Compound `CN(C)CCCOc1ccc(-c2nnc(CSCCOc3ccccc3)s2)cc1` gave a melting point of 72 to 73 °C.

`CC(=O)Nc1c(I)c(C(=O)OCOC(=O)C(C)(C)C)c(I)c(N(C)C(C)=O)c1I` returned a melting point of 232 to 234 °C.

In turn, `CCOC(=O)CC[C@H](NC(=O)/C=C/C(=O)c1ccccc1)C(=O)OCC` registered a melting point of 83 to 85 °C.

As for `CC12C=CC(=O)C=C1CCC1C2C(=O)CC2(C)C(C(=O)CO)CCC12` (centres undefined), the melting point is 203 to 206 °C.

Regarding `O=C(Nc1cccc(C(F)(F)F)c1)NC1CCN(S(=O)(=O)c2ccc(Cl)cc2)CC1`, the melting point was in the range of 116 to 118 °C.

As to `CNC(=O)/C=C/c1ccc(C(=O)NCC(=O)N(C)c2ccc(Cl)c(COc3cccc4ccc(C)nc34)c2Cl)cc1`, the melting point fell in the range of 143 to 150 °C.

Consider `CN1c2ccc(CC(=O)O)cc2CCC1c1ccccc1` (centres undefined), for which the melting point lay in the range of 110 to 111 °C.

`CCn1c(=O)c2c(nc(/C=C/c3cc(OC)ccc3OC(=O)c3ccccc3)n2C)n(CC)c1=O` yielded a melting point of 254 to 255 °C.

On to `COC(=O)CCCON1C(=O)c2ccccc2C1=O`, for which the melting point fell in the range of 79 to 81 °C.

`COCCNC(=O)c1ccc(SC)c(N)c1` came in with a melting point of 66 to 68 °C.

`N#CC1=C(C2CC2)Nc2n[nH]cc2C1c1cccc2nocc12` (centres undefined) had a melting point of 248 °C.

On to `COc1ccc(/C(=C\C=O)c2ccccc2OC)cc1`, for which the melting point lay in the range of 92 to 94 °C.

In turn, `O=c1[nH]c2cc(Cl)c(Cl)cc2nc1Cl` gave a melting point above 300 °C.

With `CCCCCCCCCCCCOc1ccc(C(=O)c2ccc(Sc3ccccc3)cc2)c(O)c1`, the melting point lay in the range of 59 to 60 °C.

`CCOCC1COc2cc3c(O)c(C(=O)OCC)cnc3cc2O1` (centres undefined): the melting point lay in the range of 266 to 268 °C.

Take `O=P(O)(O)CCCCC(F)(F)C(F)(F)C(F)(F)C(F)(F)F`: the melting point was 123 to 124 °C.

The compound `COC(=O)Oc1ccc(CNC=C2C(=O)NC(=O)c3ccc(Br)cc32)cc1OC(=O)OC` yielded a melting point of 239 to 240 °C.
